Experimental findings from patent US20100105647A1 (priority 2007, published 2010) are described below.

This test relates to Alternaria brassicicola. Nature of the test: Test of Preventive Effect on Japanese Radish Alternaria Leaf Spot. The test is classed as in vivo. To be noted: Japanese radish (cultivar: Wase 40-nichi), foliage application 500 ppm, 1 day high humidity at 24° C. plus 3 days greenhouse. On the procedure:
The controlling effect was evaluated by visually observing the area of lesion spots on each of test plants at the time of investigation and comparing the area of lesion spots on a plant treated with the present compound with that on an untreated plant.
Test of Preventive Effect on Japanese Radish Alternaria Leaf Spot (Alternaria brassicicola)
Each of plastic pots was filled with sandy loam and sown with Japanese radish (cultivar: Wase 40-nichi), followed by growing in a greenhouse for 5 days. Each of the present compounds 1-19, 21-40 and 41 was formulated into a flowable formulation according to Formulation Example 6. The flowable formulation was diluted to a predetermined concentration (500 ppm) with water, and foliage application of the dilution was carried out so that the dilution adhered sufficiently to the surfaces of leaves of the Japanese radish. After the foliage application, the plant was air-dried and then inoculated by spraying a water suspension of spores of Alternaria brassicicola. After the inoculation, the plant was held under high humidity conditions at 24° C. for 1 day and held in a greenhouse for 3 days, and then the area of lesion spots was investigated.

The structures appear in SMILES notation.

As for `C#CCOc1c(F)cc(C(=O)NCC2=CCCCC2)cc1F` [compound 18], the “area of lesion spots on the treated plant relative to that on an untreated plant” value is at most 30%.
